{"source": "patent US11109615B2", "about": "“Vitamin A composition” (NESTEC S.A., priority 2015, dated 2021)", "origin": "cited, not measured here", "conditions": "ambient conditions", "data": [{"smiles": "CC1=C(/C=C/C(C)=C/C=C/C(C)=C/C=C/C=C(C)/C=C/C=C(C)/C=C/C2=C(C)CCCC2(C)C)C(C)(C)CCC1", "note": "[β-carotene, All-trans-β-carotene]", "values": [{"measurement": "maximum solubility", "result": 0.08, "unit": "g/100 g oil"}]}]}
